PubChem BioAssay AID2060614 (Molecular Pharmacology Branch, DTP, NCI, 2025)
Several values for one entry are separate records, joined by “and”; a condition that tells them apart may be missing. Equal entries are not always repeated.

Tested on: 598228-144-R-J1-PDC complex spheroids, viability
Assay: Anticancer human tumor 598228-144-R-J1-PDC patient-derived serous endometrial adenocarcinoma cell line growth inhibition [CLK]
Settings: for viability, T/C: stronger effect = lower value
Method in brief: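 Patient-derived tumor cells grown as complex spheroids with HUVEC endothelial cells and mesenchymal stem cells, treated with drug combinations. Concentrations descend in half-log steps from near clinical Cmax, or from 10 microM if Cmax unknown.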

[1] = curve of first compound, second compound 0.0316 µM
[2] = curve of first compound, second compound 0.1 µM
[3] = curve of first compound, second compound 0.316 µM
[4] = curve of first compound, second compound 1 µM
[5] = curve of first compound, second compound 3.16 µM
[6] = curve of first compound, second compound 10 µM
[7] = second compound 0.0316 µM, first compound 0.0316 µM
[8] = second compound 0.0316 µM, first compound 0.1 µM
[9] = second compound 0.0316 µM, first compound 0.316 µM
[10] = second compound 0.0316 µM, first compound 1 µM
[11] = second compound 0.1 µM, first compound 0.0316 µM
[12] = second compound 0.1 µM, first compound 0.1 µM
[13] = second compound 0.1 µM, first compound 0.316 µM
[14] = second compound 0.1 µM, first compound 1 µM
[15] = second compound 0.316 µM, first compound 0.0316 µM
[16] = second compound 0.316 µM, first compound 0.1 µM
[17] = second compound 0.316 µM, first compound 0.316 µM
[18] = second compound 0.316 µM, first compound 1 µM
[19] = second compound 1 µM, first compound 0.0316 µM
[20] = second compound 1 µM, first compound 0.1 µM
[21] = second compound 1 µM, first compound 0.316 µM
[22] = second compound 1 µM, first compound 1 µM
[23] = second compound 3.16 µM, first compound 0.0316 µM
[24] = second compound 3.16 µM, first compound 0.1 µM
[25] = second compound 3.16 µM, first compound 0.316 µM
[26] = second compound 3.16 µM, first compound 1 µM
[27] = second compound 10 µM, first compound 0.0316 µM
[28] = second compound 10 µM, first compound 0.1 µM
[29] = second compound 10 µM, first compound 0.316 µM
[30] = second compound 10 µM, first compound 1 µM
[31] = second compound 0.0316 µM, first compound 0.00316 µM
[32] = second compound 0.0316 µM, first compound 0.01 µM
[33] = second compound 0.1 µM, first compound 0.00316 µM
[34] = second compound 0.1 µM, first compound 0.01 µM
[35] = second compound 0.316 µM, first compound 0.00316 µM
[36] = second compound 0.316 µM, first compound 0.01 µM
[37] = second compound 1 µM, first compound 0.00316 µM
[38] = second compound 1 µM, first compound 0.01 µM
[39] = second compound 3.16 µM, first compound 0.00316 µM
[40] = second compound 3.16 µM, first compound 0.01 µM
[41] = second compound 10 µM, first compound 0.00316 µM
[42] = second compound 10 µM, first compound 0.01 µM
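Note: spheroids exposed to compounds for seven days before readout.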
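Throughout, for viability, T/C: 100% = DMSO vehicle control wells.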

CC(=O)O[C@H]1C(=O)[C@@]2(C)[C@H]([C@H](OC(=O)c3ccccc3)[C@]3(O)C[C@H](OC(=O)[C@H](O)[C@@H](NC(=O)c4ccccc4)c4ccccc4)C(C)=C1C3(C)C)[C@]1(OC(C)=O)CO[C@@H]1C[C@@H]2O + CN1CCN(c2cc(C(=O)Nc3cc4cc(-c5cnn(C)c5)ccc4cn3)ccn2)CC1 was tested, and the IC50 [1] was < 0.0316 µM, the IC50 [2] was > 10 µM and the IC50 [3] was < 0.0316 µM. The IC50 [4] was < 0.0316 µM, the IC50 [5] was < 0.0316 µM and the IC50 [6] was < 0.0316 µM. It also gave a viability, T/C [7] of 40.8%, a viability, T/C [8] of 44.8% and a viability, T/C [9] of 32.3%. For the same compound, the viability, T/C [10] was 34.3%, the viability, T/C (second compound 0.0316 µM, first compound 3.16 µM) was 33.1% and the viability, T/C (second compound 0.0316 µM, first compound 10 µM) was 37.7%. It also gave a viability, T/C [11] of 72.7%, a viability, T/C [12] of 61.2% and a viability, T/C [13] of 58.8%. The viability, T/C [14] was 64.5%, the viability, T/C (second compound 0.1 µM, first compound 3.16 µM) was 51.6% and the viability, T/C (second compound 0.1 µM, first compound 10 µM) was 51.1%. The viability, T/C [15] was 19%, the viability, T/C [16] was 15.1% and the viability, T/C [17] was 20.1%. The viability, T/C [18] was 14.2%, the viability, T/C (second compound 0.316 µM, first compound 3.16 µM) was 18% and the viability, T/C (second compound 0.316 µM, first compound 10 µM) was 18.5%. It also gave a viability, T/C [19] of 1.6%, a viability, T/C [20] of 1.9% and a viability, T/C [21] of 4.17%. It also gave a viability, T/C [22] of 1.92%, a viability, T/C (second compound 1 µM, first compound 3.16 µM) of 2.39% and a viability, T/C (second compound 1 µM, first compound 10 µM) of 1.8%. The viability, T/C [23] was 1.6%, the viability, T/C [24] was 3.09% and the viability, T/C [25] was 2.8%. For the same compound, the viability, T/C [26] was 1.31%, the viability, T/C (second compound 3.16 µM, first compound 3.16 µM) was 1.95% and the viability, T/C (second compound 3.16 µM, first compound 10 µM) was 2.83%. The viability, T/C [27] was 2.83%, the viability, T/C [28] was 0.86% and the viability, T/C [29] was 2.92%. The viability, T/C [30] was 1.09%, the viability, T/C (second compound 10 µM, first compound 3.16 µM) was 2.45% and the viability, T/C (second compound 10 µM, first compound 10 µM) was 2.11%.
For C#Cc1c(F)ccc2cc(O)cc(-c3ncc4c(N5CC6CCC(C5)N6)nc(OCC56CCCN5CC(F)C6)nc4c3F)c12 (stereo not drawn), the viability, T/C (compound 0.0316 µM) was 99.8% and 98.6%, the viability, T/C (compound 0.1 µM) was 101% and 103% and the viability, T/C (compound 0.316 µM) was 108% and 112%. For the same compound, the viability, T/C (compound 1 µM) was 103% and 100%, the viability, T/C (compound 3.16 µM) was 102% and 103% and the viability, T/C (compound 10 µM) was 97.9% and 102%. The IC50 (curve of compound) was > 10 µM.
COc1c(OCCCN2CCOCC2)ccc2c3n(c(=NC(=O)c4cnc(N)nc4)nc12)CCN3 + CN1CCN(c2cc(C(=O)Nc3cc4cc(-c5cnn(C)c5)ccc4cn3)ccn2)CC1 was tested, and the IC50 [1] was 0.0309 µM, the IC50 [2] was 0.0195 µM and the IC50 [3] was < 0.00316 µM. The IC50 [4] was < 0.00316 µM, the IC50 [5] was < 0.00316 µM and the IC50 [6] was < 0.00316 µM. For the same compound, the viability, T/C [31] was 98.2%, the viability, T/C [32] was 75.7% and the viability, T/C [7] was 46.8%. For the same compound, the viability, T/C [8] was 31.9%, the viability, T/C [9] was 15.7% and the viability, T/C [10] was 8.56%. It also gave a viability, T/C [33] of 85.5%, a viability, T/C [34] of 66.5% and a viability, T/C [11] of 36.7%. For the same compound, the viability, T/C [12] was 23.5%, the viability, T/C [13] was 9.69% and the viability, T/C [14] was 10.4%. The viability, T/C [35] was 10.5%, the viability, T/C [36] was 8.73% and the viability, T/C [15] was 5.42%. It also gave a viability, T/C [16] of 2.85%, a viability, T/C [17] of 2.66% and a viability, T/C [18] of 2.22%. The viability, T/C [37] was 1.16%, the viability, T/C [38] was 0.94% and the viability, T/C [19] was 0.73%. It also gave a viability, T/C [20] of 0.29%, a viability, T/C [21] of 1.53% and a viability, T/C [22] of 3.1%. The viability, T/C [39] was 0.95%, the viability, T/C [40] was 2.7% and the viability, T/C [23] was 0.9%. For the same compound, the viability, T/C [24] was 0.57%, the viability, T/C [25] was 1.8% and the viability, T/C [26] was 4.26%. It also gave a viability, T/C [41] of 0.66%, a viability, T/C [42] of 2.16% and a viability, T/C [27] of 2.49%. It also gave a viability, T/C [28] of 0.4%, a viability, T/C [29] of 0.59% and a viability, T/C [30] of 3.39%.
In the case of CCN1CCN(Cc2ccc(Nc3ncc(F)c(-c4cc(F)c5nc(C)n(C(C)C)c5c4)n3)nc2)CC1 + CNC(=O)c1ccc(Nc2nc(OC3CCCC3)c3c(-c4ccc5nc(C)oc5c4)c[nH]c3n2)c(OC)c1, the IC50 [1] is reported as > 1 µM, the IC50 [2] is reported as > 1 µM and the IC50 [3] is reported as > 1 µM. The IC50 [4] was > 1 µM, the IC50 [5] was > 1 µM and the IC50 [6] was > 1 µM. For the same compound, the viability, T/C [31] was 104%, the viability, T/C [32] was 114% and the viability, T/C [7] was 105%. It also gave a viability, T/C [8] of 116%, a viability, T/C [9] of 112% and a viability, T/C [10] of 88.8%. For the same compound, the viability, T/C [33] was 110%, the viability, T/C [34] was 110% and the viability, T/C [11] was 126%. It also gave a viability, T/C [12] of 109%, a viability, T/C [13] of 120% and a viability, T/C [14] of 97.5%. For the same compound, the viability, T/C [35] was 119%, the viability, T/C [36] was 107% and the viability, T/C [15] was 118%. The viability, T/C [16] was 99%, the viability, T/C [17] was 108% and the viability, T/C [18] was 87.5%. The viability, T/C [37] was 105%, the viability, T/C [38] was 89.8% and the viability, T/C [19] was 91.8%. For the same compound, the viability, T/C [20] was 119%, the viability, T/C [21] was 106% and the viability, T/C [22] was 78.6%. The viability, T/C [39] was 95.2%, the viability, T/C [40] was 92.5% and the viability, T/C [23] was 82.3%. It also gave a viability, T/C [24] of 92.5%, a viability, T/C [25] of 95.8% and a viability, T/C [26] of 93%. The viability, T/C [41] was 95.5%, the viability, T/C [42] was 89.4% and the viability, T/C [27] was 90.2%. For the same compound, the viability, T/C [28] was 96.8%, the viability, T/C [29] was 108% and the viability, T/C [30] was 80.5%.
